The values that follow are results of earlier work, collected in patent US9206425B2, “Methods for treating Niemann-Pick type C disease” (Trustees of Dartmouth College, priority 2011, dated 2015).

Where two headings read alike, the source gives them in different places.

The subject of one data set is human macrophages. To be noted: in vitro.
Data set [1] has as its system mouse model for Alzheimer disease.
The subject of data set [2] is coronary atherosclerosis / familial hypercholesterolemia.
The test system of a further data set is NPC disease. To be noted: humans, two-year study.
The test system of the next data set is ACAT1 and ACAT2. To be noted: Kitayama et al. 2006.
The target of data set [3] is T1, ACAT1 (Homo sapiens, UniProt P35610).
T1 sequence (P35610 1-550): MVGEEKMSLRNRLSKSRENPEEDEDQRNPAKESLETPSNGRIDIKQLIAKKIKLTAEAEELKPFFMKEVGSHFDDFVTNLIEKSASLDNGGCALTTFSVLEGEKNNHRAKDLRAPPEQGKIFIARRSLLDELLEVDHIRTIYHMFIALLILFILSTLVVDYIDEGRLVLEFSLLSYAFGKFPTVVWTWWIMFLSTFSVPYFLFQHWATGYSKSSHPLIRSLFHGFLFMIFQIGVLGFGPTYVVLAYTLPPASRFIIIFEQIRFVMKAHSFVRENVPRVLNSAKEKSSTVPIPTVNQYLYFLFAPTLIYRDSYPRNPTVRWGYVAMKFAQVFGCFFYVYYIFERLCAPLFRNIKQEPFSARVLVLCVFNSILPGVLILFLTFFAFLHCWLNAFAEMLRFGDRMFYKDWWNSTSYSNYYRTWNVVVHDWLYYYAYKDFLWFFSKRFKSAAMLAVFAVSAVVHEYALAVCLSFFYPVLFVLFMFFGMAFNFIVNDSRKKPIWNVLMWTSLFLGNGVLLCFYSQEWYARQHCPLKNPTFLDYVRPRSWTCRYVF
To be noted: Cho et al. 2003.

The next data set has as its target T2, hACAT-2 (Homo sapiens, UniProt O75908).
T2 sequence (O75908 1-522): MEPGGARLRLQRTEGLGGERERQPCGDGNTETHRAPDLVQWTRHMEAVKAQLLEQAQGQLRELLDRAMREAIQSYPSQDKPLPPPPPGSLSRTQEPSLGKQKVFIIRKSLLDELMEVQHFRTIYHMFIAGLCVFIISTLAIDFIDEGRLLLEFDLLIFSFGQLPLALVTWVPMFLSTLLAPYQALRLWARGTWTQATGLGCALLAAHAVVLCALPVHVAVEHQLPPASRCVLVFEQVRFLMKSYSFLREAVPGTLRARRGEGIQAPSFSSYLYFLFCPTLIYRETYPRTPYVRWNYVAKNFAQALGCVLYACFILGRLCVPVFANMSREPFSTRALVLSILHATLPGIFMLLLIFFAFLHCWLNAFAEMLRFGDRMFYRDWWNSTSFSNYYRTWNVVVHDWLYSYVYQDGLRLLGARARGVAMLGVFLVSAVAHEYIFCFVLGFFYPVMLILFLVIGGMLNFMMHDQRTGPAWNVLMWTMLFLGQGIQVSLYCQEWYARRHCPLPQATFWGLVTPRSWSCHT

The target of data set [4] is T1, ACAT1. To be noted: Lee et al. 2004.
[5] abbreviates: mouse model for Alzheimer disease.
Where [6] appears, read: continuous administration starting at PND 7.

With `CC(C)c1cc(C(C)C)c(CC(=O)NS(=O)(=O)Oc2c(C(C)C)cccc2C(C)C)c(C(C)C)c1` [Avasimibe], the “foam cell formation in macrophages” value in the data set with human macrophages was “reduces foam cell formation”. Further, in data set [1] (14.4 mg/kg/day), the “activity in mouse model for Alzheimer's disease” value is given as “beneficial activity”. In data set [1] (setting [5]), the amyloid plaque load result is reported as “significant decreases” and the cognitive deficits result is reported as “reduction in cognitive deficits”. For the same compound, the safety entry (administered to rats, dogs, and humans) is recorded as “safe”. Besides, the “progression of coronary atherosclerosis” value in data set [2] (humans, in combination with a statin drug) is “failed to demonstrate efficacy”.
As for `CC(O)COC[C@H]1O[C@@H]2O[C@H]3[C@H](O)[C@@H](O)[C@@H](O[C@H]4[C@H](O)[C@@H](O)[C@@H](O[C@H]5[C@H](O)[C@@H](O)[C@@H](O[C@H]6[C@H](O)[C@@H](O)[C@@H](O[C@H]7[C@H](O)[C@@H](O)[C@@H](O[C@H]8[C@H](O)[C@@H](O)[C@@H](O[C@H]1[C@H](O)[C@H]2O)O[C@@H]8COCC(C)O)O[C@@H]7COCC(C)O)O[C@@H]6COCC(C)O)O[C@@H]5COCC(C)O)O[C@@H]4COCC(C)O)O[C@@H]3COCC(C)O` (stereo partly drawn) [HPCD, hydroxypropyl beta-cyclodextrin], the “crossing the blood brain barrier” value with NPC mice and NPC cats (mouse, in vivo) is “difficulty in crossing the blood brain barrier”. Moreover, the “macrophage activation in the lungs” value with NPC mice and NPC cats (treated NPC mice and NPC cats) was “increases in macrophage activation”. In addition, in the data set with NPC1^−/− mice (single injection at PND 7), the prolonged lifespan is 27%. Besides, in the data set on NPC1^−/− mice (weekly treatment), the cholesterol accumulation result was “normalize cholesterol accumulation” and the survival entry is listed as “prolong survival”.
In the case of `CSc1cc(C)nc(SC)c1NC(=O)CN1CCN(CCSc2nc3ccccc3[nH]2)CC1` [K-604], the safety in vivo entry (laboratory animals) is given as “safe for use in vivo”.
As for `CCCCN1C[C@H](O)[C@@H](O)[C@H](O)[C@H]1CO` [Miglustat], in the data set with NPC1^−/− mice (setting [6]), the clinical onset entry is “significantly delayed” and the prolonged lifespan is on record as 49%. The “patients with stabilized NPC disease progression” value in the data set with NPC disease is recorded as 80 % of patients.
`CCCCCCCCN1CCc2c(C)c(CC(=O)O)c(C)c(NC(=O)C(C)(C)C)c21` [Pactimibe]: the “potency on ACAT1 versus ACAT2” value in the data set on ACAT1 and ACAT2 is “approximately equal potency”. For the same compound, the “efficacy as supplement to statin treatment” value in data set [2] (patients with familial hypercholesterolemia) is recorded as “lacked efficacy”.
`CCOC(=O)OC(=O)OCC` [diethyl pyrocarbonate]: the “greater activity on ACAT1 compared to ACAT-2” value at ACAT1 [3] is 4 fold.
As for `COc1ccc([C@@H](O)[C@@H](C)Oc2ccc([C@H]3O[C@H](c4ccc(O[C@H](C)[C@H](O)c5ccc6c(c5)OCO6)c(OC)c4)[C@H](C)[C@H]3C)cc2OC)cc1OC` [manassantin B], at hACAT-2 (at 1 mM), the “inhibition of hACAT-2” value is recorded as 32%.
For saucerneol B, the results for the IC50 on ACAT1 [4] and at hACAT-2 (Lee et al. 2004) were 43 µM and 124 µM, respectively.

A word on the IC50: it is the concentration at which inhibition is half-maximal.
